What all share (type): biochemical
Experiment [1] addresses T1, AnPC (Aspergillus nidulans, UniProt Q5B4R8).
T1 construct: gene ANIA_04462; full length, N-terminal (His)9 tag, pET-17b, E. coli BL21(DE3) with BirA (biotinylated), 130 kDa subunit, tetramer
T1 sequence (Q5B4R8 1-1196): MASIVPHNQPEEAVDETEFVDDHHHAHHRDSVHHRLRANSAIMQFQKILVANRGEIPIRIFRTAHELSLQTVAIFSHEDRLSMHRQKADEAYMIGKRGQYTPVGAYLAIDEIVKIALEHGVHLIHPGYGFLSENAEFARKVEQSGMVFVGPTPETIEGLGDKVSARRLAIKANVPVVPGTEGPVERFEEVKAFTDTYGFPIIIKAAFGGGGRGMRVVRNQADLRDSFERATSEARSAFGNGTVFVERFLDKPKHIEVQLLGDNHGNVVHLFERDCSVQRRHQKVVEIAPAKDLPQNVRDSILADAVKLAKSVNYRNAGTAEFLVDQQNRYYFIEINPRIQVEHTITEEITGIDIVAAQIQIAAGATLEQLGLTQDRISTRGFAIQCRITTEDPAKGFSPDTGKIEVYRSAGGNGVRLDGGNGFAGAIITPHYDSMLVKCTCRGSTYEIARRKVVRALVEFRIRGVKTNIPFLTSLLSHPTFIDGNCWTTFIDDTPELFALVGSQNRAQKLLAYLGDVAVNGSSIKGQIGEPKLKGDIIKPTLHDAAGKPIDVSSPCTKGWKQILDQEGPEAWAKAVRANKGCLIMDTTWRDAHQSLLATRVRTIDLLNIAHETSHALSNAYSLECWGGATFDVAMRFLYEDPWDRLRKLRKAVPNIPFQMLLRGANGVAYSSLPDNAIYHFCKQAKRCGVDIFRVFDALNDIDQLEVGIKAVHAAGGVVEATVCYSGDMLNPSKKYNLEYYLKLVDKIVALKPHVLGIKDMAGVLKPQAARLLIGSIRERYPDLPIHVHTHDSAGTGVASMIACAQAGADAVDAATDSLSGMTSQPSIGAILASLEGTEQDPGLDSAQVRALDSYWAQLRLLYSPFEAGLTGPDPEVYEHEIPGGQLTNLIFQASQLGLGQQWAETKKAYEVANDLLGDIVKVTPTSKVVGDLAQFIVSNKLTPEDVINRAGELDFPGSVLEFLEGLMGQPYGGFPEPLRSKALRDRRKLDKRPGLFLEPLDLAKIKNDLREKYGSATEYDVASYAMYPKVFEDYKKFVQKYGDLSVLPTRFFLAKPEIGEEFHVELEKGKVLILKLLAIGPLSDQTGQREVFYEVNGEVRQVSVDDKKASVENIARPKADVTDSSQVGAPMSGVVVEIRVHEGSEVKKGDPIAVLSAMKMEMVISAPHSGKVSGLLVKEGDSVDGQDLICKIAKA
Description: shift of L-aspartate Ki in coupled assay. The conditions noted are these: 0.1 mM acetyl CoA; competes with L-aspartate, no activation; pH 7.8, 25 °C.

Experiment [2] addresses T2, RePC (Rhizobium etli, UniProt Q2K340).
T2 construct: gene pyc; full length, N-terminal (His)9 tag, pET-17b, E. coli BL21(DE3) with BirA (biotinylated), 126 kDa subunit, homotetramer
Description: coupled malate dehydrogenase assay of pyruvate carboxylation, […] nm. The conditions noted are these: hybrid tetramer population (hybrid A) of two co-expressed domain-inactivated mutants; no acetyl CoA; 25 mM NaHCO3, 2.5 mM MgATP, 12 mM pyruvate, pH 7.8, 25 °C; allosteric; read-out: + 0 mM acetyl coenzyme A / Ki.

Experiment [3] deals with T1, AnPC. Described as above. The conditions noted are these: read-out: + 0 mM acetyl coenzyme A / Ki.
For experiment [4], the target named is T2, RePC. The description is as above. As to conditions: read-out: + 0 mM acetyl coenzyme A / Ki.

SMILES strings stand for the structures. Like-named read-outs stand apart in the source and are kept apart here.

For the compound `CC(=O)SCCNC(=O)CCNC(=O)[C@H](O)C(C)(C)COP(=O)(O)OP(=O)(O)OC[C@H]1O[C@@H](n2cnc3c(N)ncnc32)[C@H](O)[C@@H]1OP(=O)(O)O` [acetyl CoA], in experiment [1], the “shift of L-aspartate Ki in coupled assay” value is recorded as “This confirms that acetyl CoA does, indeed, bind to AnPC”.

For `N[C@@H](CC(=O)O)C(=O)O` [L-aspartate], the Ki came out at 6.2 ± 0.5 mM in experiment [2], 2.6 ± 0.1 mM in experiment [3] and 4.7 ± 0.7 mM in experiment [4].

The values are drawn from PMC5895798, “Allosteric regulation alters carrier domain translocation in pyruvate carboxylase” (Nature Communications, 2018).
